# Reference: US20240409585A1, “MACROCYCLIC IMMUNOMODULATORS” (priority 2021, published 2024)
# Bridge positions count the residues as written; N and C are the ends. Square brackets hold non-standard residues; d marks the D form. Peptide text beside a SMILES is read from it. * marks the point of attachment. ξ: configuration not given here. Phe(4-CONH2) = NC(=O)c1ccc(C[C@H](N)C(=O)O)cc1; Phe(4-COOH) = N[C@@H](Cc1ccc(C(=O)O)cc1)C(=O)O; Bip = N[C@@H](Cc1ccc(-c2ccccc2)cc1)C(=O)O; Phe(3-Me) = Cc1cccc(C[C@H](N)C(=O)O)c1; Val(3-OH) = CC(C)(O)[C@H](N)C(=O)O; 4Pal = N[C@@H](Cc1ccncc1)C(=O)O; 2Thi = N[C@@H](Cc1cccs1)C(=O)O; Cha = N[C@@H](CC1CCCCC1)C(=O)O; Ile(3ξ) = CCC(C)[C@H](N)C(=O)O; Thr(3ξ) = CC(O)[C@H](N)C(=O)O; dOrn = NCCC[C@@H](N)C(=O)O; dDab = NCC[C@@H](N)C(=O)O; Carboxymethyl = O=C(O)C*; NMeA = CN[C@@H](C)C(=O)O; Orn = NCCC[C@H](N)C(=O)O; Dab = NCC[C@H](N)C(=O)O; Dap = NC[C@H](N)C(=O)O; Piv = CC(C)(C)C(=O)*
# Molecular target: T1, PE-labeled human PD-L1-Ig binding to Jurkat cell line over-expressing human PD-1 (Jurkat-PD-1) (Homo sapiens, UniProt Q15116)
# T1 construct: expressed in transfected cells; host or cells: Jurkat
# Experiment: Jurkat-PD-1 Cell Binding High-Content Screening Assay (CBA): Method 1
# Conditions: Jurkat-hPD-1 cells, PE-labeled PD-L1-Ig 20 nM final; read-out: Jurkat HPDL1 PD1 IC50 (uM) (Method 1)
# T1 sequence (Q15116 25-288): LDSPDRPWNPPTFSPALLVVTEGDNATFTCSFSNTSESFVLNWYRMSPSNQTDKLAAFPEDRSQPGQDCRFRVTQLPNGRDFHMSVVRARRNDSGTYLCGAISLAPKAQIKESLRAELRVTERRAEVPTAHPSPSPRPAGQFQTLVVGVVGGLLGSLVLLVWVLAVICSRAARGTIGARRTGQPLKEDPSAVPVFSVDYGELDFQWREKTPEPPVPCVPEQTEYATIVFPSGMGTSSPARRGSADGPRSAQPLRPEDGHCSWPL
row,IC50 [µM],Compound
1,0.01,Cc1cccc(C[C@@H]2NC(=O)[C@H](CC(=O)O)NC(=O)[C@H](Cc3ccc(OCC(=O)O)cc3)NC(=O)[C@H](C(C)O)NC(=O)CSC[C@@H](C(=O)N[C@@H](CCN)C(N)=O)NC(=O)[C@H](CO)NC(=O)[C@H](C(C)(C)O)NC(=O)[C@H](CC3CCCCC3)NC(=O)[C@H](CCN)NC(=O)[C@@H](CC(C)C)NC(=O)[C@H](C)N(C)C(=O)[C@H](Cc3ccc(C(=O)O)cc3)NC(=O)[C@H](Cc3ccc(-c4ccccc4)cc3)NC(=O)[C@H](Cc3ccc(C(=O)O)cc3)NC2=O)c1 (stereo partly drawn) [Compound 2152] ({CH2CO}-[Thr(3ξ)]Y(Carboxymethyl)D[Phe(3-Me)][Phe(4-COOH)][Bip][Phe(4-COOH)][NMeA][dL][Dab][Cha][Val(3-OH)]SC[Dab]-NH2; thioether N-14)
2,0.02,CCC(C)[C@@H]1NC(=O)[C@H](Cc2ccc(-c3ccccc3)cc2)NC(=O)[C@H](C(C)C)NC(=O)[C@H](Cc2c[nH]c3ccccc23)NC(=O)[C@H](CC(=O)O)NC(=O)[C@H](Cc2ccc(OCC(=O)O)cc2)NC(=O)[C@H](C(C)O)NC(=O)CSC[C@@H](C(=O)N[C@@H](CCCN)C(N)=O)NC(=O)[C@H](C(C)O)NC(=O)[C@H](C(C)C)NC(=O)[C@H](CC2CCCCC2)NC(=O)[C@H](CCN)NC(=O)[C@@H](CC(C)C)NC(=O)[C@H](C)N(C)C1=O (stereo partly drawn) [Compound 2153] ({CH2CO}-[Thr(3ξ)]Y(Carboxymethyl)DWV[Bip][Ile(3ξ)][NMeA][dL][Dab][Cha]V[Thr(3ξ)]C[Orn]-NH2; thioether N-14)
3,0.01,Cc1cccc(C[C@@H]2NC(=O)[C@H](CC(=O)O)NC(=O)[C@H](Cc3ccc(OCC(=O)O)cc3)NC(=O)[C@H](CCN)NC(=O)CSC[C@@H](C(=O)N[C@@H](CCN)C(N)=O)NC(=O)[C@H](C(C)O)NC(=O)[C@H](C(C)C)NC(=O)[C@H](CC3CCCCC3)NC(=O)[C@H](CCN)NC(=O)[C@@H](CC(C)C)NC(=O)[C@H](C)N(C)C(=O)[C@H](Cc3ccc(OCC(=O)O)cc3)NC(=O)[C@H](Cc3ccc(-c4ccccc4)cc3)NC(=O)[C@H](Cc3ccc(OCC(=O)O)cc3)NC2=O)c1 (stereo partly drawn) [Compound 2154] ({CH2CO}-[Dab]Y(Carboxymethyl)D[Phe(3-Me)]Y(Carboxymethyl)[Bip]Y(Carboxymethyl)[NMeA][dL][Dab][Cha]V[Thr(3ξ)]C[Dab]-NH2; thioether N-14)
4,0.01,CC(=O)NCCCC[C@@H]1NC(=O)[C@H](C(C)C)NC(=O)[C@H](CC2CCCCC2)NC(=O)[C@H](CCN)NC(=O)[C@@H](CC(C)C)NC(=O)[C@H](C)N(C)C(=O)[C@H](CCC(N)=O)NC(=O)[C@H](Cc2ccc(-c3ccccc3)cc2)NC(=O)[C@H](C(C)C)NC(=O)[C@H](Cc2cccc(C)c2)NC(=O)[C@H](CC(=O)O)NC(=O)[C@H](Cc2ccc(OCC(=O)O)cc2)NC(=O)[C@H](Cc2ccc(OCC(=O)O)cc2)NC(=O)CSC[C@@H](C(=O)N[C@H](CCCN)C(N)=O)NC1=O [Compound 2155] ({CH2CO}-Y(Carboxymethyl)Y(Carboxymethyl)D[Phe(3-Me)]V[Bip]Q[NMeA][dL][Dab][Cha]VK(Ac)C[dOrn]-NH2; thioether N-14)
5,0.12,Cc1cccc(C[C@@H]2NC(=O)[C@H](CC(=O)O)NC(=O)[C@H](Cc3ccc(OCC(=O)O)cc3)NC(=O)[C@H](C(C)O)NC(=O)CSC[C@@H](C(=O)N[C@H](CCN)C(N)=O)NC(=O)[C@H](C(C)(C)O)NC(=O)[C@H](C(C)C)NC(=O)[C@H](CC3CCCCC3)NC(=O)[C@H](CCN)NC(=O)[C@@H](CC(C)C)NC(=O)[C@H](C)N(C)C(=O)[C@H](Cc3ccc(OCC(=O)O)cc3)NC(=O)[C@H](Cc3ccc(-c4ccccc4)cc3)NC(=O)[C@H](Cc3ccc(C(=O)O)cc3)NC2=O)c1 (stereo partly drawn) [Compound 2156] ({CH2CO}-[Thr(3ξ)]Y(Carboxymethyl)D[Phe(3-Me)][Phe(4-COOH)][Bip]Y(Carboxymethyl)[NMeA][dL][Dab][Cha]V[Val(3-OH)]C[dDab]-NH2; thioether N-14)
6,0.04,CCC(C)[C@@H]1NC(=O)[C@H](Cc2ccc(-c3ccccc3)cc2)NC(=O)[C@H](C(C)C)NC(=O)[C@H](Cc2c[nH]c3ccccc23)NC(=O)[C@H](CC(=O)O)NC(=O)[C@H](Cc2ccc(O)cc2)NC(=O)[C@H](Cc2ccncc2)NC(=O)CSC[C@@H](C(=O)N[C@@H](CN)C(N)=O)NC(=O)[C@H](C(C)O)NC(=O)[C@H](C(C)C)NC(=O)[C@H](CC2CCCCC2)NC(=O)[C@H](CC(N)=O)NC(=O)[C@@H](CC(C)C)NC(=O)[C@H](C)N(C)C1=O (stereo partly drawn) [Compound 2157] ({CH2CO}-[4Pal]YDWV[Bip][Ile(3ξ)][NMeA][dL]N[Cha]V[Thr(3ξ)]C[Dap]-NH2; thioether N-14)
7,0.02,Cc1cccc(C[C@@H]2NC(=O)[C@H](CC(=O)O)NC(=O)[C@H](Cc3ccc(OCC(=O)O)cc3)NC(=O)[C@H](C(C)O)NC(=O)CSC[C@@H](C(=O)N[C@@H](CCN)C(N)=O)NC(=O)[C@H](Cc3cnc[nH]3)NC(=O)[C@H](C(C)(C)O)NC(=O)[C@H](CC3CCCCC3)NC(=O)[C@H](CCN)NC(=O)[C@@H](CC(C)C)NC(=O)[C@H](C)N(C)C(=O)[C@H](Cc3ccc(C(N)=O)cc3)NC(=O)[C@H](Cc3ccc(-c4ccccc4)cc3)NC(=O)[C@H](Cc3ccc(OCC(=O)O)cc3)NC2=O)c1 (stereo partly drawn) [Compound 2158] ({CH2CO}-[Thr(3ξ)]Y(Carboxymethyl)D[Phe(3-Me)]Y(Carboxymethyl)[Bip][Phe(4-CONH2)][NMeA][dL][Dab][Cha][Val(3-OH)]HC[Dab]-NH2; thioether N-14)
8,0.04,CC(=O)NCC[C@H](NC(=O)[C@@H]1CSCC(=O)N[C@@H](C(C)O)C(=O)N[C@@H](Cc2ccc(OCC(=O)O)cc2)C(=O)N[C@@H](CC(=O)O)C(=O)N[C@@H](Cc2cccc(C)c2)C(=O)N[C@@H](Cc2ccc(C(=O)O)cc2)C(=O)N[C@@H](Cc2ccc(-c3ccccc3)cc2)C(=O)N[C@@H](Cc2ccc(OCC(=O)O)cc2)C(=O)N(C)[C@@H](C)C(=O)N[C@H](CC(C)C)C(=O)N[C@@H](CCN)C(=O)N[C@@H](CC2CCCCC2)C(=O)N[C@@H](C(C)(C)O)C(=O)N[C@@H](Cc2cnc[nH]2)C(=O)N1)C(N)=O (stereo partly drawn) [Compound 2161] ({CH2CO}-[Thr(3ξ)]Y(Carboxymethyl)D[Phe(3-Me)][Phe(4-COOH)][Bip]Y(Carboxymethyl)[NMeA][dL][Dab][Cha][Val(3-OH)]HC[Dab](Ac)-NH2; thioether N-14)
9,0.02,CC(=O)NCC[C@H](NC(=O)[C@@H]1CSCC(=O)N[C@@H](Cc2ccncc2)C(=O)N[C@@H](Cc2ccc(OCC(=O)O)cc2)C(=O)N[C@@H](CC(=O)O)C(=O)N[C@@H](Cc2cccc(C)c2)C(=O)N[C@@H](Cc2ccc(C(=O)O)cc2)C(=O)N[C@@H](Cc2ccc(-c3ccccc3)cc2)C(=O)N[C@@H](Cc2ccc(OCC(=O)O)cc2)C(=O)N(C)[C@@H](C)C(=O)N[C@H](CC(C)C)C(=O)N[C@@H](CCN)C(=O)N[C@@H](CC2CCCCC2)C(=O)N[C@@H](C(C)(C)O)C(=O)N[C@@H](Cc2cnc[nH]2)C(=O)N1)C(N)=O [Compound 2162] ({CH2CO}-[4Pal]Y(Carboxymethyl)D[Phe(3-Me)][Phe(4-COOH)][Bip]Y(Carboxymethyl)[NMeA][dL][Dab][Cha][Val(3-OH)]HC[Dab](Ac)-NH2; thioether N-14)
10,0.01,CC(=O)NCC[C@H](NC(=O)[C@@H]1CSCC(=O)N[C@@H](Cc2cccs2)C(=O)N[C@@H](Cc2ccc(OCC(=O)O)cc2)C(=O)N[C@@H](CC(=O)O)C(=O)N[C@@H](Cc2cccc(C)c2)C(=O)N[C@@H](Cc2ccc(C(=O)O)cc2)C(=O)N[C@@H](Cc2ccc(-c3ccccc3)cc2)C(=O)N[C@@H](Cc2ccc(OCC(=O)O)cc2)C(=O)N(C)[C@@H](C)C(=O)N[C@H](CC(C)C)C(=O)N[C@@H](CCN)C(=O)N[C@@H](CC2CCCCC2)C(=O)N[C@@H](C(C)(C)O)C(=O)N[C@@H](Cc2cnc[nH]2)C(=O)N1)C(N)=O [Compound 2163] ({CH2CO}-[2Thi]Y(Carboxymethyl)D[Phe(3-Me)][Phe(4-COOH)][Bip]Y(Carboxymethyl)[NMeA][dL][Dab][Cha][Val(3-OH)]HC[Dab](Ac)-NH2; thioether N-14)
11,0.05,Cc1cccc(C[C@@H]2NC(=O)[C@H](CC(=O)O)NC(=O)[C@H](Cc3ccc(OCC(=O)O)cc3)NC(=O)[C@H](C(C)O)NC(=O)CSC[C@@H](C(=O)N[C@@H](CCNC(=O)C(C)(C)C)C(N)=O)NC(=O)[C@H](Cc3cnc[nH]3)NC(=O)[C@H](C(C)(C)O)NC(=O)[C@H](CC3CCCCC3)NC(=O)[C@H](CCN)NC(=O)[C@@H](CC(C)C)NC(=O)[C@H](C)N(C)C(=O)[C@H](Cc3ccc(OCC(=O)O)cc3)NC(=O)[C@H](Cc3ccc(-c4ccccc4)cc3)NC(=O)[C@H](Cc3ccc(C(=O)O)cc3)NC2=O)c1 (stereo partly drawn) [Compound 2164] ({CH2CO}-[Thr(3ξ)]Y(Carboxymethyl)D[Phe(3-Me)][Phe(4-COOH)][Bip]Y(Carboxymethyl)[NMeA][dL][Dab][Cha][Val(3-OH)]HC[Dab](Piv)-NH2; thioether N-14)
12,0.04,Cc1cccc(C[C@@H]2NC(=O)[C@H](CC(=O)O)NC(=O)[C@H](Cc3ccc(OCC(=O)O)cc3)NC(=O)[C@H](Cc3ccncc3)NC(=O)CSC[C@@H](C(=O)N[C@@H](CCNC(=O)C(C)(C)C)C(N)=O)NC(=O)[C@H](Cc3cnc[nH]3)NC(=O)[C@H](C(C)(C)O)NC(=O)[C@H](CC3CCCCC3)NC(=O)[C@H](CCN)NC(=O)[C@@H](CC(C)C)NC(=O)[C@H](C)N(C)C(=O)[C@H](Cc3ccc(OCC(=O)O)cc3)NC(=O)[C@H](Cc3ccc(-c4ccccc4)cc3)NC(=O)[C@H](Cc3ccc(C(=O)O)cc3)NC2=O)c1 [Compound 2165] ({CH2CO}-[4Pal]Y(Carboxymethyl)D[Phe(3-Me)][Phe(4-COOH)][Bip]Y(Carboxymethyl)[NMeA][dL][Dab][Cha][Val(3-OH)]HC[Dab](Piv)-NH2; thioether N-14)
13,0.02,Cc1cccc(C[C@@H]2NC(=O)[C@H](CC(=O)O)NC(=O)[C@H](Cc3ccc(OCC(=O)O)cc3)NC(=O)[C@H](Cc3cccs3)NC(=O)CSC[C@@H](C(=O)N[C@@H](CCNC(=O)C(C)(C)C)C(N)=O)NC(=O)[C@H](Cc3cnc[nH]3)NC(=O)[C@H](C(C)(C)O)NC(=O)[C@H](CC3CCCCC3)NC(=O)[C@H](CCN)NC(=O)[C@@H](CC(C)C)NC(=O)[C@H](C)N(C)C(=O)[C@H](Cc3ccc(OCC(=O)O)cc3)NC(=O)[C@H](Cc3ccc(-c4ccccc4)cc3)NC(=O)[C@H](Cc3ccc(C(=O)O)cc3)NC2=O)c1 [Compound 2166] ({CH2CO}-[2Thi]Y(Carboxymethyl)D[Phe(3-Me)][Phe(4-COOH)][Bip]Y(Carboxymethyl)[NMeA][dL][Dab][Cha][Val(3-OH)]HC[Dab](Piv)-NH2; thioether N-14)
